Tests used:
Format in all cases: functional, organism-based, Sprague-Dawley
[1] = target: T1, ATP-binding cassette sub-family C member 2 (Rattus norvegicus, UniProt Q63120); experiment: (§1) TP_TRANSPORTER: quantitative PCR in vivo, kidney of SD rat
[2] = target: T2, ATP-binding cassette sub-family C member 3 (Rattus norvegicus, UniProt O88563); experiment: as §1
[3] = target: T3, ATP-binding cassette subfamily C member 4 (Rattus norvegicus, UniProt F1M3J4); experiment: as §1
T3 sequence (F1M3J4 whole entry): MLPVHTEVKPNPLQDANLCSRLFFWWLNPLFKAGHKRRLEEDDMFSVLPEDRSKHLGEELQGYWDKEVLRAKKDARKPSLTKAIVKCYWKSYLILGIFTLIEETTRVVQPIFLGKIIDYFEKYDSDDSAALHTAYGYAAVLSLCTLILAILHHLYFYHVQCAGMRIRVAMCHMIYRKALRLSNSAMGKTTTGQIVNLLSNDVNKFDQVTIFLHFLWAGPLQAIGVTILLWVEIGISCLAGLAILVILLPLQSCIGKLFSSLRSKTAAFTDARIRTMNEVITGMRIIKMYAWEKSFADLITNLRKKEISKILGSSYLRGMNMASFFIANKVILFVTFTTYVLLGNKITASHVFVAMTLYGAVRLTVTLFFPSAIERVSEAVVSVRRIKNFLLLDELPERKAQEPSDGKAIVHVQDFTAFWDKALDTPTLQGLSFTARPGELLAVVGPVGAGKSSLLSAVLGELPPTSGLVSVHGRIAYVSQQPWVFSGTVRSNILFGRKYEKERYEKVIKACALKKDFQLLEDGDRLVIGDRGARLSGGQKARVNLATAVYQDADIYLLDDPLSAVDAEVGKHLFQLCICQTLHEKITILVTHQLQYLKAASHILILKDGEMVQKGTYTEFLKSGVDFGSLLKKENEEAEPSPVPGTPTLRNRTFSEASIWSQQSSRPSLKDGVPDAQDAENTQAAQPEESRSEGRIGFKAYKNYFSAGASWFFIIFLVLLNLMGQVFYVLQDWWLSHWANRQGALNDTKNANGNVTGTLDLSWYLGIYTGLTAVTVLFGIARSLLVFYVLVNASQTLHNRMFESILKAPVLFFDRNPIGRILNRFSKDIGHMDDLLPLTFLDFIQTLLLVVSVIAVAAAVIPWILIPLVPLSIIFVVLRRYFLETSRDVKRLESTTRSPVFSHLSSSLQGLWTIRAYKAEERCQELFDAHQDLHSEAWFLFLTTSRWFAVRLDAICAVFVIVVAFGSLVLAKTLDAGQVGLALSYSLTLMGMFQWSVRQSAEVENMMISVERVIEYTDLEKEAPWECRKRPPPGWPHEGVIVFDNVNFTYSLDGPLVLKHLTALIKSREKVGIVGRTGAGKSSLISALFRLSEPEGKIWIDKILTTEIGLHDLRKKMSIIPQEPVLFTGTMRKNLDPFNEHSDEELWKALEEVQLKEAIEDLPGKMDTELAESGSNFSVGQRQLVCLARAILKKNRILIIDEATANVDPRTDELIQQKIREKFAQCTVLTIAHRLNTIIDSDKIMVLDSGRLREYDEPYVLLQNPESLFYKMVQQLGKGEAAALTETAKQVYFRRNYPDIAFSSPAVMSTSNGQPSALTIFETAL

[4] = target: T2, ATP-binding cassette sub-family C member 3; experiment: (§2) TP_TRANSPORTER: quantitative PCR in vivo, liver of SD rat
[5] = target: T3, ATP-binding cassette subfamily C member 4; experiment: as §2
[6] = target: T1, ATP-binding cassette sub-family C member 2; experiment: (§3) TP_TRANSPORTER: Western in vivo, liver of SD rat
[7] = target: T2, ATP-binding cassette sub-family C member 3; experiment: as §3
[8] = target: T1, ATP-binding cassette sub-family C member 2; experiment: as §2

Measured: Activity

T2 sequence (O88563 whole entry): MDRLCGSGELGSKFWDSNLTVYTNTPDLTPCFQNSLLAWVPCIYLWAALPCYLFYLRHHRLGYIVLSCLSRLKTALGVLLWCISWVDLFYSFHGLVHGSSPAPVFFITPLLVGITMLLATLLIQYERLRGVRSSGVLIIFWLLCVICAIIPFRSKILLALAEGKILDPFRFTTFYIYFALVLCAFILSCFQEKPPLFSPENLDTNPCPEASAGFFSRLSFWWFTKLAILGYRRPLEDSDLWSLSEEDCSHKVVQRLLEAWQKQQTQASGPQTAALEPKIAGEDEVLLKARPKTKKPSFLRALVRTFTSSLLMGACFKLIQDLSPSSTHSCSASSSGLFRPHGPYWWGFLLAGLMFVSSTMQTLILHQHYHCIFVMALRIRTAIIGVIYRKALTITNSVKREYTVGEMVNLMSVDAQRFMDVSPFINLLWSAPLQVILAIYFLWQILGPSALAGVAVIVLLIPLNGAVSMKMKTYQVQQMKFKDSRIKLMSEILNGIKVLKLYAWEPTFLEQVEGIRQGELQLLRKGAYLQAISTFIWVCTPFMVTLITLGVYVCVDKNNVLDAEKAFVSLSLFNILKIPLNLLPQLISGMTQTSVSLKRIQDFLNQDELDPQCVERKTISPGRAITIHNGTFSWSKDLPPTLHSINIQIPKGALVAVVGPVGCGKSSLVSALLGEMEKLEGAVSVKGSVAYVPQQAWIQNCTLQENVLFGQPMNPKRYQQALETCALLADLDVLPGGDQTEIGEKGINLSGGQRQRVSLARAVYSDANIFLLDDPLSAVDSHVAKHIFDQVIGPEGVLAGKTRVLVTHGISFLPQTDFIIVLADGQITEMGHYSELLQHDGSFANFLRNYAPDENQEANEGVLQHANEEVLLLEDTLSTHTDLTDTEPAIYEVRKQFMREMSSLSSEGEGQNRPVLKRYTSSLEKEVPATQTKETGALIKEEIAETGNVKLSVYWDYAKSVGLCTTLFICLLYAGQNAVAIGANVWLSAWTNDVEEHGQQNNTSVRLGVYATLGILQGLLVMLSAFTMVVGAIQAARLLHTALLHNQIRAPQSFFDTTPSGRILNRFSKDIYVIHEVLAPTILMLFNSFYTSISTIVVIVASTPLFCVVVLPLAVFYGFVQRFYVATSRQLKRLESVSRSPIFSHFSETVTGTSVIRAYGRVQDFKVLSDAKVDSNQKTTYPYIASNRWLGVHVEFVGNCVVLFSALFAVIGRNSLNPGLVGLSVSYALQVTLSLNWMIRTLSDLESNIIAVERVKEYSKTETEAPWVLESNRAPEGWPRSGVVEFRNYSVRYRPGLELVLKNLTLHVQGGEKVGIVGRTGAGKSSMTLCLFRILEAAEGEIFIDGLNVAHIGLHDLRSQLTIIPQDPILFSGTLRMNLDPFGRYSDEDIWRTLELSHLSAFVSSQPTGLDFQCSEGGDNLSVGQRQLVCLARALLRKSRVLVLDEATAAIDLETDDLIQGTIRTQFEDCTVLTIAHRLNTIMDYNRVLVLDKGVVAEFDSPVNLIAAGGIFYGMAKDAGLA
T1 sequence (Q63120 whole entry): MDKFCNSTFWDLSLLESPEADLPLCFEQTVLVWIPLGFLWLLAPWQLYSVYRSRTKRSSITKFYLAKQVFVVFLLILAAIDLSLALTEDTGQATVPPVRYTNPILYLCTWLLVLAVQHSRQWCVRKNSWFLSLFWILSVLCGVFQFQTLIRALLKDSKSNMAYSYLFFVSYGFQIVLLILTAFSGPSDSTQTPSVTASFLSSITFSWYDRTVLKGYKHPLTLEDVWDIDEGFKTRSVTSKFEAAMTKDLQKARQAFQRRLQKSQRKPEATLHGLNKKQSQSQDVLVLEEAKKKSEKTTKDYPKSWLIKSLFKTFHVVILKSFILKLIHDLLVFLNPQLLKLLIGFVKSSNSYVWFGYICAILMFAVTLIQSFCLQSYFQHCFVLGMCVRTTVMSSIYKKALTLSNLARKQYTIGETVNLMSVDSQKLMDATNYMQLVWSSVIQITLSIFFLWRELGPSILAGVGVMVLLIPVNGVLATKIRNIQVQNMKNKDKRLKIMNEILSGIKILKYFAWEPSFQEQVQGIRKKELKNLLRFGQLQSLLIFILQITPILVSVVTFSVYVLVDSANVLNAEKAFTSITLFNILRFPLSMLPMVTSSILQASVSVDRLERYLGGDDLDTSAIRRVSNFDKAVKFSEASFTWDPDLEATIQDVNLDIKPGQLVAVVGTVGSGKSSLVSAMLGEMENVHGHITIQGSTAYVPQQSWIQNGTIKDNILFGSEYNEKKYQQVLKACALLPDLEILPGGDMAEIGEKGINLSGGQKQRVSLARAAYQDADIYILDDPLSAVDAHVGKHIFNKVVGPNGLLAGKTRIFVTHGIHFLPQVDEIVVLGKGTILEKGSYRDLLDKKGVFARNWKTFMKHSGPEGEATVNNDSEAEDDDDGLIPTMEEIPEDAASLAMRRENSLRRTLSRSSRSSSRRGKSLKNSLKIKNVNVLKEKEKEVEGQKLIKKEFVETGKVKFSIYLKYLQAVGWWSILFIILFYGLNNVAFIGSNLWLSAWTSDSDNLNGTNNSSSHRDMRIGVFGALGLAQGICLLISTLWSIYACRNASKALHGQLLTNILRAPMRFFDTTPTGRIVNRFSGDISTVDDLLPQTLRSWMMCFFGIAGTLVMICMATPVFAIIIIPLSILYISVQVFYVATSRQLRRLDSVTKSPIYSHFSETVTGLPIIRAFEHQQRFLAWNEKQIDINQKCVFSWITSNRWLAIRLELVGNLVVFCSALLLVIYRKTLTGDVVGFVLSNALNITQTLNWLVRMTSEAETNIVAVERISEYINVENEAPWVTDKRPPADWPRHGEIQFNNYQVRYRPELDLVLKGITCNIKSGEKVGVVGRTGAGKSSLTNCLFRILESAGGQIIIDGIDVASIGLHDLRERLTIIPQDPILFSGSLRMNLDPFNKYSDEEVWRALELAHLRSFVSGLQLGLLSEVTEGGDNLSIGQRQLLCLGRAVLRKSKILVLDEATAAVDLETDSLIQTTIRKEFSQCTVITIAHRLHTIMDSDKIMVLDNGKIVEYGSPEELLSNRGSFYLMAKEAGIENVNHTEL

C=CCSCC=C [DIALLYL SULFIDE]
not listed: [8]
inducer []: all other assays above

c1ccc([C@H]2O[C@@H]2c2ccccc2)cc1 (relative stereo)
inducer []: [8] | [4] | [5] | [6] | [7]

Cc1c(-c2cnccn2)ssc1=S [OLTIPRAZ]
inducer []: [2] | [8] | [4] | [6] | [7]

CCC1(c2ccccc2)C(=O)NC(=O)NC1=O [PHENOBARBITAL]
inducer []: [4] | [7]

Source: ChEMBL document CHEMBL2074419, “Induction of multidrug resistance protein 3 in rat liver is associated with altered vectorial excretion of acetaminophen metabolites” (Drug Metab Dispos, 2003)
